Here are results for one molecule from ChEMBL document CHEMBL4706499, “PTG-0861: A novel HDAC6-selective inhibitor as a therapeutic strategy in acute myeloid leukaemia” (Eur J Med Chem, 2020).

A short description of data set [1]: Intrinsic clearance in mouse hepatocytes assessed per 10^6 cells measured after 120 mins by LC/MS/MS method. The format is ADME, cell-based, Hepatocyte. To be noted: read-out: CLH.
Data set [2] can be described thus: Cmax in CD1 mouse at 20 mg/kg, ip measured after 24 hrs by LC/MS/MS method. Format: ADME, organism-based. Details: route intraperitoneal, dose 20 mg/kg, time 24 hrs. The following applies: in vivo.
In data set [3] the target is Class 1 histone deacetylase (Homo sapiens) (UniProt Q13547+O15379+Q92769+Q9BY41). The experiment in a line: Inhibition of HDAC class 1 in human HeLa cells assessed as acetylated H3 histone at 0.1 uM measured after 6 hrs by Immunofluorescent assay.
Sequence of Class 1 histone deacetylase (Homo sapiens) (O15379 whole entry, looked up): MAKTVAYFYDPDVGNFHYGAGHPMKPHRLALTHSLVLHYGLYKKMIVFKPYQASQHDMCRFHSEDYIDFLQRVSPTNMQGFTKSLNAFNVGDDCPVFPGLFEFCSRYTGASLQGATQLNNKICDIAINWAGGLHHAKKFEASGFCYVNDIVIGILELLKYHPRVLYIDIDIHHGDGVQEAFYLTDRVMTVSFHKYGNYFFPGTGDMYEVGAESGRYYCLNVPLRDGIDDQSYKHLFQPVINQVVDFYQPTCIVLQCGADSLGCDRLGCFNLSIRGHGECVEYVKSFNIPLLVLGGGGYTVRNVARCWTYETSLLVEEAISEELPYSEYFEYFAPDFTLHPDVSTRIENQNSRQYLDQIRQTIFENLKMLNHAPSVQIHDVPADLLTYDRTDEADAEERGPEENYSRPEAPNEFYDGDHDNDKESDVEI
Sequence of Class 1 histone deacetylase (Homo sapiens) (Q13547 whole entry, looked up): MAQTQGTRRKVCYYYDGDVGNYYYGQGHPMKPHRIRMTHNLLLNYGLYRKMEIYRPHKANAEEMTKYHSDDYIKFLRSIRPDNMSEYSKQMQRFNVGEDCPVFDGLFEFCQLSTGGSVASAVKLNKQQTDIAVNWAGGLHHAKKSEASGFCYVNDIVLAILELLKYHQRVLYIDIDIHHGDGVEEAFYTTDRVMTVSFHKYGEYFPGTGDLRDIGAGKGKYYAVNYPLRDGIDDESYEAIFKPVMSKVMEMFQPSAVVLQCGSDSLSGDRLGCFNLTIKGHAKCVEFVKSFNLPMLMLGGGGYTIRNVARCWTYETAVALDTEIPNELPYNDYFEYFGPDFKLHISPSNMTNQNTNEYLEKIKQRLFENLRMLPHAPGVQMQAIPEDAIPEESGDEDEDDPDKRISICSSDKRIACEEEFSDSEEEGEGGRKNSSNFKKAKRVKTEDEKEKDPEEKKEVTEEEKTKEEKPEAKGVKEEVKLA
Sequence of Class 1 histone deacetylase (Homo sapiens) (Q92769 whole entry, looked up): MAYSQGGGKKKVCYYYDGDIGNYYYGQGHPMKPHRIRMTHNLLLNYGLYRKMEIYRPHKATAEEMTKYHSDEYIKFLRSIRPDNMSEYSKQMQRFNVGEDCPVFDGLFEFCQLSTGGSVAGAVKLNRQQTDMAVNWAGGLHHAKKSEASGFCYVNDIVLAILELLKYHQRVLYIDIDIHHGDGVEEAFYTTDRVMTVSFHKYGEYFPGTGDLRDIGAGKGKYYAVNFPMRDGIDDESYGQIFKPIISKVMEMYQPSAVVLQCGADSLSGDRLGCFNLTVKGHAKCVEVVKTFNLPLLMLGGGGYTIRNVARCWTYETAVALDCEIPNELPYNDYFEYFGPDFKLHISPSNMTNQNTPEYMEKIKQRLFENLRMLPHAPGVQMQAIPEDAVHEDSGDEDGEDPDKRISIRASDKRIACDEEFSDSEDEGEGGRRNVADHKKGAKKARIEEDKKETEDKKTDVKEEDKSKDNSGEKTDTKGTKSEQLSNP
Sequence of Class 1 histone deacetylase (Homo sapiens) (Q9BY41 whole entry, looked up): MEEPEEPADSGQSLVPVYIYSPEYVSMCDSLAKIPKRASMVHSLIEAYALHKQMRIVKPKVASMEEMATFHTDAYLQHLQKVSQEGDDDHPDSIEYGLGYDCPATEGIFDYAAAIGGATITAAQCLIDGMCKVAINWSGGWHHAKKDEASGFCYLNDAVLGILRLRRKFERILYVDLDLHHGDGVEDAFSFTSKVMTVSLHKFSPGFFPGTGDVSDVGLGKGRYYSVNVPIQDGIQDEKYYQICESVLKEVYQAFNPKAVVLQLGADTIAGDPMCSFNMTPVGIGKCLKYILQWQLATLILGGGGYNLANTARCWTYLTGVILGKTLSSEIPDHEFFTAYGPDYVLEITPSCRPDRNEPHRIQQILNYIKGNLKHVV
Data set [4] addresses Histone deacetylase 4 (Homo sapiens, UniProt P56524). Description: Inhibition of recombinant full length human HDAC4 expressed in SF9 baculovirus using FAM- labelled acetylated peptide as substrate measured by Electrophoretic mobility shift assay. (In EMSA bound probe runs differently from free probe, usually more slowly.)
Data set [5] addresses T1, Histone deacetylase 11 (Homo sapiens, UniProt Q96DB2).
T1 sequence (Q96DB2 whole entry): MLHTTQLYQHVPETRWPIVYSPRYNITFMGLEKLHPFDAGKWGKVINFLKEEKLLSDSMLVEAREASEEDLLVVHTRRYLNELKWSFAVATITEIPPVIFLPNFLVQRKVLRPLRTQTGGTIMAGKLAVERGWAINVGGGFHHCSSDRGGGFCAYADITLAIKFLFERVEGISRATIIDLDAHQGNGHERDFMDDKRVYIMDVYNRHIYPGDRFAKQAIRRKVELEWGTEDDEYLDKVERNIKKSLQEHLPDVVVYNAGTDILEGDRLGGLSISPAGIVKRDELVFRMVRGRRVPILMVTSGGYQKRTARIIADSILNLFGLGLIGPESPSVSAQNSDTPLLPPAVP
Description: Inhibition of recombinant full length human HDAC11 expressed in SF9 baculovirus using FAM- labelled acetylated peptide as substrate measured by Electrophoretic mobility shift assay.

In data set [6] the test system is MV4-11. Description: Induction of apoptosis in human MV4-11 cells assessed as early apoptotic cells at 0.25 microM measured after 18 hrs by Annexin V/Propidium iodide stain based Flow cytometry assay (reference value: 1.7%). The format is functional. (In general: Flow cytometry measures light scatter and fluorescence of single cells or particles in a stream.)
Data set [7] concerns MV4-11. Description: Induction of apoptosis in human MV4-11 cells assessed as late apoptotic cells at 0.25 microM measured after 18 hrs by Annexin V/Propidium iodide stain based Flow cytometry assay (reference value: 4.91%). Format: functional.
Data set [8] has as its target Histone deacetylase 3 (Homo sapiens, UniProt O15379). Description: Inhibition of recombinant full length human HDAC3 expressed in SF9 baculovirus using FAM- labelled acetylated peptide as substrate measured by Electrophoretic mobility shift assay.
The subject of data set [9] is MV4-11. Description: Induction of apoptosis in human MV4-11 cells assessed as viable cells at 1 microM measured after 18 hrs by Annexin V/Propidium iodide stain based Flow cytometry assay (reference value: 53.27%). The format is functional. To be noted: read-out: Activity.
Data set [10] deals with MV4-11. The experiment in a line: Induction of apoptosis in human MV4-11 cells assessed as late apoptotic cells at 1 microM measured after 18 hrs by Annexin V/Propidium iodide stain based Flow cytometry assay (reference value: 4.91%). Format: functional.
Data set [11] deals with Histone deacetylase 2 (Homo sapiens, UniProt Q92769). The experiment in a line: Inhibition of recombinant full length human HDAC2 expressed in SF9 baculovirus using FAM- labelled acetylated peptide as substrate measured by Electrophoretic mobility shift assay.
Sequence of Histone deacetylase 2 (Q92769 whole entry): as the sequence (Q92769 whole entry, looked up) above
Data set [12] concerns MV4-11. Description: Induction of apoptosis in human MV4-11 cells assessed as late apoptotic cells at 2 microM measured after 18 hrs by Annexin V/Propidium iodide stain based Flow cytometry assay (reference value: 4.91%). The format is functional.
Data set [13] deals with RPMI-8226. The experiment in a line: Cytotoxicity against human RPMI-8226 cells measured after 72 hrs by spectrophotometer method. The format is functional, cell-based. To be noted: RPMI-8226, 72 h.
A short description of data set [14]: Toxicity in CD-1 mouse assessed as visible signs of toxicity at 20 mg/kg, po measured after 5 days. Format: organism-based. To be noted: in vivo, 120 h, time 5 day.
Data set [15] deals with MV4-11. Description: Cytotoxicity against human MV4-11 cells measured after 72 hrs by spectrophotometer method. The format is functional, cell-based. The following applies: MV4-11, 72 h.
Data set [16] is described as follows: Glutathione reactivity at pH 7.4 assessed as compound remaining measured after 120 mins by LC-MS/MS method. The format is physicochemical. To be noted: glutathione solution, read-out: Stabilty.
In data set [17] the target is Histone deacetylase 9 (Homo sapiens, UniProt Q9UKV0). Description: Inhibition of recombinant full length human HDAC9 expressed in SF9 baculovirus using FAM- labelled acetylated peptide as substrate measured by Electrophoretic mobility shift assay.
Sequence of Histone deacetylase 9 (Q9UKV0 whole entry): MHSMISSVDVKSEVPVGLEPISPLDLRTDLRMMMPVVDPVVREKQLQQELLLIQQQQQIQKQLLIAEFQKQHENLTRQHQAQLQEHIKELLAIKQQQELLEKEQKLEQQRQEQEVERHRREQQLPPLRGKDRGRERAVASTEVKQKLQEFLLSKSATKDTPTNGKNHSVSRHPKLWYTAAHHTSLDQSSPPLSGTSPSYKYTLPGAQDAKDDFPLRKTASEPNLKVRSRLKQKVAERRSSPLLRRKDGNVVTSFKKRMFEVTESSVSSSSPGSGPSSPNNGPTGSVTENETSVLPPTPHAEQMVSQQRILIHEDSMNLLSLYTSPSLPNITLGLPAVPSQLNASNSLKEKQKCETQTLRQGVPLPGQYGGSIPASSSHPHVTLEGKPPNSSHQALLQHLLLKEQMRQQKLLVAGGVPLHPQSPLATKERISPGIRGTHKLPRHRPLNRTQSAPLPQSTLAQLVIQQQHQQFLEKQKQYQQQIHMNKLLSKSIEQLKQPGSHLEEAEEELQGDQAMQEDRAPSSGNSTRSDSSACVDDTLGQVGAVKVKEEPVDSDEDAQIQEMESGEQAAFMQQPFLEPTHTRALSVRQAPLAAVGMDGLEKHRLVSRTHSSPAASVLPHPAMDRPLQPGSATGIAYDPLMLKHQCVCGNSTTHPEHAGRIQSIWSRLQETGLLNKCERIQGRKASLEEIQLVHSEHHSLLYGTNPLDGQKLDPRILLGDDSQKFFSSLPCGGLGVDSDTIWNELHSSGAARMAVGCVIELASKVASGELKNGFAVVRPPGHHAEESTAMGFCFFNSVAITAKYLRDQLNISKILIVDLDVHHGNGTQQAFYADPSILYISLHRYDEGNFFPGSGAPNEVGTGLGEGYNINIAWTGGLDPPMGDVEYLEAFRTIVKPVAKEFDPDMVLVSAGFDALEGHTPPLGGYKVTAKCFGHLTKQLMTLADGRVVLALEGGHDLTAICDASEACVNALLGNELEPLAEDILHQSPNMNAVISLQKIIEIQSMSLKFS

In general, Cmax refers to the peak of the concentration-time curve. The IC50 is the point on the concentration scale where inhibition reaches its midpoint.

Molecules are shown by their SMILES. Active and inactive are the calls of the source. The rule behind the calls is not given here.

Sequence of Histone deacetylase 3 (O15379 whole entry): as the sequence (O15379 whole entry, looked up) above
Sequence of Histone deacetylase 4 (P56524 whole entry): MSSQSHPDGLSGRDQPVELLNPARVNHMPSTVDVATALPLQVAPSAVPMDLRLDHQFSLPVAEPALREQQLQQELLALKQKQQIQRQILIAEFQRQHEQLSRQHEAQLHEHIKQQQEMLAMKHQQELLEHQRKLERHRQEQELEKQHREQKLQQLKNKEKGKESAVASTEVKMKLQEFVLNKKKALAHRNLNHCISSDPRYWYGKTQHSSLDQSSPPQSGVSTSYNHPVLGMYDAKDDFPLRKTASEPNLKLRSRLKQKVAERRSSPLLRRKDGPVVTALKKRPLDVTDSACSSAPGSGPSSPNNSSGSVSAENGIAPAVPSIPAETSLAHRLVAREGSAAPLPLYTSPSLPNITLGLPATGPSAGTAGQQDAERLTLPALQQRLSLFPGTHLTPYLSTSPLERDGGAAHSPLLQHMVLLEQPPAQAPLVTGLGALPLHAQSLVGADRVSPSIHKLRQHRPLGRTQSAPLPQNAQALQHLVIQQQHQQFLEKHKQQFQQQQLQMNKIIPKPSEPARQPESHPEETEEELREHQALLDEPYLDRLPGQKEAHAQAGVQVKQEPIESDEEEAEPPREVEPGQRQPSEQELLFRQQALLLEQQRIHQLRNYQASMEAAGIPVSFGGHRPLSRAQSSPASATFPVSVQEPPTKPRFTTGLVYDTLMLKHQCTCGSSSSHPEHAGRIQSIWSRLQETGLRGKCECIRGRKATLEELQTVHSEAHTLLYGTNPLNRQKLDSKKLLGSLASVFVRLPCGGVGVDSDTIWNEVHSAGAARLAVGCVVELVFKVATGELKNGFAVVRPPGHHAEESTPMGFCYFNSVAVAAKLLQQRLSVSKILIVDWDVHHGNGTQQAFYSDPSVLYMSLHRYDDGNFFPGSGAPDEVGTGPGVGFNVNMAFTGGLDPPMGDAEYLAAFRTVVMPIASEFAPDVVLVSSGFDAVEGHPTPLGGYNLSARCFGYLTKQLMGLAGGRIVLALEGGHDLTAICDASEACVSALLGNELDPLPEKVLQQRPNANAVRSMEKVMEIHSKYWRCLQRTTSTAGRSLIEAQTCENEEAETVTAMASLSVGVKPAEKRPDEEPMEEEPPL

Take `O=C(NO)c1ccc(CNC(=O)c2c(F)c(F)c(F)c(F)c2F)cc1`: the hepatocyte CLint in data set [1] was found to be 27.3 µL/min/1e6 cells. In [2], this molecule yielded a maximum concentration (Cmax) of 526 ng/mL. Also, the inhibition entry in data set [3] is “inactive”. Besides, the IC50 is > 1 µM in data set [4]; > 1 µM in data set [5]; 0.215 µM in data set [8]; > 1 µM in data set [11]; 4.94 µM in data set [13]; 1.85 µM in [15]. In data set [17], the IC50 is > 1 µM. In addition, the Activity in data set [6] is given as 1.69%; in [7], 5.13%; in data set [10], 11.15%; in data set [12] it was 15.93%; in [14], “Non-Toxic”. The viability at 1 µM in data set [9] turned out to be 35.6%. The remaining at 2 h in data set [16] worked out at 97.1%.
